# Test results published in ChEMBL document CHEMBL3611975, “New carbocyclic N(6)-substituted adenine and pyrimidine nucleoside analogues with a bicyclo[2.2.1]heptane fragment as sugar moiety; synthesis, antiviral, anticancer activity and X-ray crystallography” (Bioorg Med Chem, 2015).
# Assays:
# MCF7 = test: Cytotoxicity against human MCF7 cells assessed as growth at 10^-5 M relative to control
# HCC 2998 = test: Cytotoxicity against human HCC2998 cells assessed as growth at 10^-5 M relative to control
# OVCAR-4 = test: Cytotoxicity against human OVCAR4 cells assessed as growth at 10^-5 M relative to control
# RXF 393 = test: Cytotoxicity against human RXF393 cells assessed as growth at 10^-5 M relative to control
# SF-268 = test: Cytotoxicity against human SF268 cells assessed as growth at 10^-5 M relative to control
# MDA-MB-231 = test: Cytotoxicity against human MDA-MB-231 cells assessed as growth at 10^-5 M relative to control
# SK-MEL-2 = test: Cytotoxicity against human SK-MEL-2 cells assessed as growth at 10^-5 M relative to control
# A549 = test: Cytotoxicity against human A549 cells assessed as growth at 10^-5 M relative to control
# [1] = Selectivity index, ratio of CTD50 for African green monkey Vero cells to EC50 for Human coxsackievirus B4 Powers; type: toxicity, cell-based
# NCI-H322M = test: Cytotoxicity against human NCI-H322M cells assessed as growth at 10^-5 M relative to control
# DU-145 = test: Cytotoxicity against human DU145 cells assessed as growth at 10^-5 M relative to control
# SK-MEL-28 = test: Cytotoxicity against human SK-MEL-28 cells assessed as growth at 10^-5 M relative to control
# HL-60(TB) = test: Cytotoxicity against human HL-60(TB) cells assessed as growth inhibition at 10^-5 M relative to control; type: functional; settings: read-out: GI
# UACC-257 = test: Cytotoxicity against human UACC257 cells assessed as growth at 10^-5 M relative to control
# Malme-3M = test: Cytotoxicity against human MALME-3M cells assessed as growth at 10^-5 M relative to control
# Coxsackievirus B4 = test: Antiviral activity against Human coxsackievirus B4 Powers infected in African green monkey Vero cells assessed as decrease in virus titer after 72 hrs by MTT assay; type: functional, organism-based; settings: Enterovirus B
# PC-3 = test: Cytotoxicity against human PC3 cells assessed as growth at 10^-5 M relative to control
# K562 = test: Cytotoxicity against human K562 cells assessed as growth at 10^-5 M relative to control
# HCT-15 = test: Cytotoxicity against human HCT15 cells assessed as growth at 10^-5 M relative to control
# [2] = Cytotoxicity against human Hs578T cells assessed as growth at 10^-5 M relative to control; settings: Hs-578T
# NCI-H226 = test: Cytotoxicity against human NCI-H226 cells assessed as growth at 10^-5 M relative to control
# NCI-H522 = test: Cytotoxicity against human NCI-H522 cells assessed as growth at 10^-5 M relative to control
# SF-295 = test: Cytotoxicity against human SF295 cells assessed as growth at 10^-5 M relative to control
# [3] = Cytotoxicity against human EKVX cells assessed as growth at 10^-5 M relative to control
compound,measurement,setting,value
OC[C@H]1[C@@H]2C[C@H](n3cnc4c(NCCc5ccccc5)ncnc43)[C@H]1C[C@@H]2Cl,"growth, % of control at 10 µM",MCF7,89.9%
same,"growth, % of control at 10 µM",HCC 2998,89.8%
same,"growth, % of control at 10 µM",OVCAR-4,93.6%
same,"growth, % of control at 10 µM",RXF 393,87%
same,"growth, % of control at 10 µM",SF-268,101%
same,"growth, % of control at 10 µM",MDA-MB-231,104%
same,"growth, % of control at 10 µM",SK-MEL-2,97.2%
same,"growth, % of control at 10 µM",A549,92.6%
same,selectivity ratio,[1],3
same,"growth, % of control at 10 µM",NCI-H322M,99.5%
same,"growth, % of control at 10 µM",DU-145,98%
same,"growth, % of control at 10 µM",SK-MEL-28,107%
same,inhibition of growth at 10 µM,HL-60(TB),120%
same,"growth, % of control at 10 µM",UACC-257,103%
same,"growth, % of control at 10 µM",Malme-3M,102%
same,EC50,Coxsackievirus B4,4 µM
same,"growth, % of control at 10 µM",PC-3,89.1%
same,"growth, % of control at 10 µM",K562,91.1%
same,"growth, % of control at 10 µM",HCT-15,81.7%
COc1ccc(CCNc2ncnc3c2ncn3[C@H]2C[C@H]3[C@H](CO)[C@@H]2C[C@@H]3Cl)cc1,"growth, % of control at 10 µM",MCF7,94.1%
same,"growth, % of control at 10 µM",HCC 2998,97.2%
same,"growth, % of control at 10 µM",[2],93.6%
same,"growth, % of control at 10 µM",OVCAR-4,94.3%
same,"growth, % of control at 10 µM",RXF 393,104%
same,"growth, % of control at 10 µM",SF-268,97.7%
same,"growth, % of control at 10 µM",MDA-MB-231,100%
same,"growth, % of control at 10 µM",NCI-H226,102%
same,"growth, % of control at 10 µM",SK-MEL-2,101%
same,"growth, % of control at 10 µM",NCI-H522,56.7%
same,"growth, % of control at 10 µM",A549,83.3%
same,selectivity ratio,[1],1
same,"growth, % of control at 10 µM",NCI-H322M,89.2%
same,"growth, % of control at 10 µM",DU-145,105%
same,"growth, % of control at 10 µM",SK-MEL-28,104%
same,inhibition of growth at 10 µM,HL-60(TB),94.7%
same,"growth, % of control at 10 µM",UACC-257,99.4%
same,"growth, % of control at 10 µM",Malme-3M,98.2%
same,"growth, % of control at 10 µM",SF-295,104%
same,"growth, % of control at 10 µM",[3],100%
same,EC50,Coxsackievirus B4,> 9 µM
same,"growth, % of control at 10 µM",PC-3,102%
same,"growth, % of control at 10 µM",K562,82.8%
same,"growth, % of control at 10 µM",HCT-15,95.5%
CCOc1ncnc2c1ncn2[C@H]1C[C@H]2[C@H](CO)[C@@H]1C[C@@H]2Cl,"growth, % of control at 10 µM",MCF7,95.2%
same,"growth, % of control at 10 µM",HCC 2998,98.9%
same,"growth, % of control at 10 µM",[2],108%
same,"growth, % of control at 10 µM",OVCAR-4,108%
same,"growth, % of control at 10 µM",RXF 393,106%
same,"growth, % of control at 10 µM",SF-268,98%
same,"growth, % of control at 10 µM",MDA-MB-231,97.9%
same,"growth, % of control at 10 µM",NCI-H226,94.5%
same,"growth, % of control at 10 µM",SK-MEL-2,108%
same,"growth, % of control at 10 µM",NCI-H522,92.4%
same,"growth, % of control at 10 µM",A549,99%
same,selectivity ratio,[1],2
same,"growth, % of control at 10 µM",NCI-H322M,89.9%
same,"growth, % of control at 10 µM",DU-145,105%
same,"growth, % of control at 10 µM",SK-MEL-28,100%
same,inhibition of growth at 10 µM,HL-60(TB),95.4%
same,"growth, % of control at 10 µM",UACC-257,106%
same,"growth, % of control at 10 µM",Malme-3M,96%
same,"growth, % of control at 10 µM",SF-295,108%
same,"growth, % of control at 10 µM",[3],95.8%
same,EC50,Coxsackievirus B4,> 102 µM
same,"growth, % of control at 10 µM",PC-3,104%
same,"growth, % of control at 10 µM",K562,101%
same,"growth, % of control at 10 µM",HCT-15,95.7%
